Reference: ChEMBL document CHEMBL3232845 (Bioorg Med Chem Lett, 2014)

Experiments:
[1] = biological target: Maternal embryonic leucine zipper kinase (Homo sapiens) (UniProt Q14680); assay: Inhibition of human MELK assessed as enzyme activity at 1 uM relative to control; design: scale not given: the % may be the effect or the level left
[2] = biological target: Aurora kinase A (Homo sapiens) (UniProt O14965); assay: Inhibition of human AURKA assessed as enzyme activity at 1 uM relative to control; design: scale not given: the % may be the effect or the level left
[3] = biological target: Mitogen-activated protein kinase 12 (Homo sapiens) (UniProt P53778); assay: Inhibition of human p38gamma assessed as enzyme activity at 1 uM relative to control; design: scale not given: the % may be the effect or the level left
[4] = biological target: BDNF/NT-3 growth factors receptor (Homo sapiens) (UniProt Q16620); assay: Inhibition of human TrkB assessed as enzyme activity at 1 uM relative to control; design: scale not given: the % may be the effect or the level left
[5] = biological target: Ribosomal protein S6 kinase alpha-1 (Homo sapiens) (UniProt Q15418); assay: Inhibition of human Rsk1 assessed as enzyme activity at 1 uM relative to control; design: scale not given: the % may be the effect or the level left
[6] = biological target: Protein kinase C beta type (Homo sapiens) (UniProt P05771); assay: Inhibition of human PKCbeta1 assessed as enzyme activity at 1 uM relative to control; design: scale not given: the % may be the effect or the level left
[7] = biological target: Epidermal growth factor receptor (Homo sapiens) (UniProt P00533); assay: Inhibition of human EGFR assessed as enzyme activity at 1 uM relative to control; design: scale not given: the % may be the effect or the level left
[8] = biological target: cAMP-dependent protein kinase catalytic subunit PRKX (Homo sapiens) (UniProt P51817); assay: Inhibition of human PrKX assessed as enzyme activity at 1 uM relative to control; design: scale not given: the % may be the effect or the level left
[9] = biological target: RAC-beta serine/threonine-protein kinase (Homo sapiens) (UniProt P31751); assay: Inhibition of human AKT2 assessed as enzyme activity at 1 uM relative to control; design: scale not given: the % may be the effect or the level left
[10] = biological target: Serine/threonine-protein kinase haspin (Homo sapiens) (UniProt Q8TF76); assay: Inhibition of human Haspin assessed as enzyme activity at 1 uM relative to control; design: scale not given: the % may be the effect or the level left
[11] = biological target: Tyrosine-protein kinase Fes/Fps (Homo sapiens) (UniProt P07332); assay: Inhibition of human Fes assessed as enzyme activity at 1 uM relative to control; design: scale not given: the % may be the effect or the level left
[12] = biological target: G protein-coupled receptor kinase 6 (Homo sapiens) (UniProt P43250); assay: Inhibition of human GRK6 assessed as enzyme activity at 1 uM relative to control; design: scale not given: the % may be the effect or the level left
[13] = biological target: SRSF protein kinase 1 (Homo sapiens) (UniProt Q96SB4); assay: Inhibition of human SRPK1 assessed as enzyme activity at 1 uM relative to control; design: scale not given: the % may be the effect or the level left
Sequence of SRSF protein kinase 1 (Homo sapiens) (Q96SB4 whole entry): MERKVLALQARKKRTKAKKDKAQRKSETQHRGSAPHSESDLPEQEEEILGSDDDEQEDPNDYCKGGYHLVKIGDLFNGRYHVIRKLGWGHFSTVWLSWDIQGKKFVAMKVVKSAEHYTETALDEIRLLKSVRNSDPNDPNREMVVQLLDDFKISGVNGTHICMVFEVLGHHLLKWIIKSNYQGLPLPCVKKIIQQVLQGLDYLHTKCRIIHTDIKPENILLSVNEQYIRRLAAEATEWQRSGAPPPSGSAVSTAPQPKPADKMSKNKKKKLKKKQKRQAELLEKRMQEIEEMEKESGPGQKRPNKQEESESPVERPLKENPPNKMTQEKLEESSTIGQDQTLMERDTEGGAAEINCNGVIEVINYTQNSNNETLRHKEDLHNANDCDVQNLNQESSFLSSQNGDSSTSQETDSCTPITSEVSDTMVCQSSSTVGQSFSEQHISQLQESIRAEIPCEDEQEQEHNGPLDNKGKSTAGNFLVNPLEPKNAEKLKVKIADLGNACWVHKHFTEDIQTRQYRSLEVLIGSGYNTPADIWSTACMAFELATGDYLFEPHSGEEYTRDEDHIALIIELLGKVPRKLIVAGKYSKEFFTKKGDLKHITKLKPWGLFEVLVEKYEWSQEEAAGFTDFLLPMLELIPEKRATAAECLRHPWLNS

[14] = biological target: Mitogen-activated protein kinase 11 (Homo sapiens) (UniProt Q15759); assay: Inhibition of human p38beta assessed as enzyme activity at 1 uM relative to control; design: scale not given: the % may be the effect or the level left
[15] = biological target: Fibroblast growth factor receptor 1 (Homo sapiens) (UniProt P11362); assay: Inhibition of human FGFR1 assessed as enzyme activity at 1 uM relative to control; design: scale not given: the % may be the effect or the level left
[16] = biological target: Cytoplasmic tyrosine-protein kinase BMX (Homo sapiens) (UniProt P51813); assay: Inhibition of human Bmx assessed as enzyme activity at 1 uM relative to control; design: scale not given: the % may be the effect or the level left
[17] = species on record: Sus scrofa; assay: Inhibition of […] pig Abl assessed as enzyme activity at 1 uM relative to control; design: scale not given: the % may be the effect or the level left
[18] = biological target: Insulin receptor (Homo sapiens) (UniProt P06213); assay: Inhibition of human activated IR assessed as enzyme activity at 1 uM relative to control; design: scale not given: the % may be the effect or the level left
[19] = biological target: Mitogen-activated protein kinase kinase kinase 9 (Homo sapiens) (UniProt P80192); assay: Inhibition of human MLK1 assessed as enzyme activity at 1 uM relative to control; design: scale not given: the % may be the effect or the level left
[20] = biological target: Serine/threonine-protein kinase MRCK alpha (Homo sapiens) (UniProt Q5VT25); assay: Inhibition of human MRCKalpha assessed as enzyme activity at 1 uM relative to control; design: scale not given: the % may be the effect or the level left
[21] = biological target: Calcium/calmodulin-dependent protein kinase type 1 (Homo sapiens) (UniProt Q14012); assay: Inhibition of human CAMK1 assessed as enzyme activity at 1 uM relative to control; design: scale not given: the % may be the effect or the level left
Sequence of Calcium/calmodulin-dependent protein kinase type 1 (Homo sapiens) (Q14012 whole entry, looked up): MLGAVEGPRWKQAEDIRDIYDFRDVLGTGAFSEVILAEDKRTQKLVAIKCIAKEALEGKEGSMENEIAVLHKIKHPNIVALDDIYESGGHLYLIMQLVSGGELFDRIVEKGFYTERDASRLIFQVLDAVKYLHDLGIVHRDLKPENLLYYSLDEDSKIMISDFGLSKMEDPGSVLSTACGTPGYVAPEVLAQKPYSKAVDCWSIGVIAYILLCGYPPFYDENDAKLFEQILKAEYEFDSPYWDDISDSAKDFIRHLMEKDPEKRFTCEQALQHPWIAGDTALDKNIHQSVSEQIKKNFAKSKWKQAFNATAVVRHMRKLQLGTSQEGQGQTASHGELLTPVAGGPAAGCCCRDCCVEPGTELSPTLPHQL

[22] = biological target: Ephrin type-A receptor 3 (Homo sapiens) (UniProt P29320); assay: Inhibition of human EphA3 assessed as enzyme activity at 1 uM relative to control; design: scale not given: the % may be the effect or the level left
[23] = biological target: Mitogen-activated protein kinase 3 (Homo sapiens) (UniProt P27361); assay: Inhibition of human ERK1 assessed as enzyme activity at 1 uM relative to control; design: scale not given: the % may be the effect or the level left
[24] = biological target: 3-phosphoinositide-dependent protein kinase 1 (Homo sapiens) (UniProt O15530); assay: Inhibition of human PDK1 assessed as enzyme activity at 1 uM relative to control; design: scale not given: the % may be the effect or the level left
[25] = biological target: RAC-alpha serine/threonine-protein kinase (Homo sapiens) (UniProt P31749); assay: Inhibition of human AKT1 assessed as enzyme activity at 1 uM relative to control; design: scale not given: the % may be the effect or the level left
[26] = biological target: Tyrosine-protein kinase FRK (Homo sapiens) (UniProt P42685); assay: Inhibition of human PTK5 assessed as enzyme activity at 1 uM relative to control; design: scale not given: the % may be the effect or the level left
Sequence of Tyrosine-protein kinase FRK (Homo sapiens) (P42685 whole entry): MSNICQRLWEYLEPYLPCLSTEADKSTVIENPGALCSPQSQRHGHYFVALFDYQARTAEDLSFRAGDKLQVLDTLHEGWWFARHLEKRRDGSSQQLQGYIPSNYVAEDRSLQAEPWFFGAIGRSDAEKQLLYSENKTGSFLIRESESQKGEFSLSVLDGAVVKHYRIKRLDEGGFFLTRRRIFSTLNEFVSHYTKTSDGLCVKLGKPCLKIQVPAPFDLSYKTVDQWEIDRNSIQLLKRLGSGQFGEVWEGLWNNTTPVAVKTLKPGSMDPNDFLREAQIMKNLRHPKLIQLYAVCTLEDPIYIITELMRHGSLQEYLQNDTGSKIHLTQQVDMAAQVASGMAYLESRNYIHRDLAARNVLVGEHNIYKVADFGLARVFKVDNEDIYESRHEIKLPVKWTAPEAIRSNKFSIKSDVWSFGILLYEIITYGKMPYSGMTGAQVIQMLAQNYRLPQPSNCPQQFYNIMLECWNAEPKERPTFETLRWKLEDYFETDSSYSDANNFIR

[27] = biological target: Insulin-like growth factor 1 receptor (Homo sapiens) (UniProt P08069); assay: Inhibition of human IGF-1R assessed as enzyme activity at 1 uM relative to control; design: scale not given: the % may be the effect or the level left
Sequence of Insulin-like growth factor 1 receptor (Homo sapiens) (P08069 31-736 limits assumed): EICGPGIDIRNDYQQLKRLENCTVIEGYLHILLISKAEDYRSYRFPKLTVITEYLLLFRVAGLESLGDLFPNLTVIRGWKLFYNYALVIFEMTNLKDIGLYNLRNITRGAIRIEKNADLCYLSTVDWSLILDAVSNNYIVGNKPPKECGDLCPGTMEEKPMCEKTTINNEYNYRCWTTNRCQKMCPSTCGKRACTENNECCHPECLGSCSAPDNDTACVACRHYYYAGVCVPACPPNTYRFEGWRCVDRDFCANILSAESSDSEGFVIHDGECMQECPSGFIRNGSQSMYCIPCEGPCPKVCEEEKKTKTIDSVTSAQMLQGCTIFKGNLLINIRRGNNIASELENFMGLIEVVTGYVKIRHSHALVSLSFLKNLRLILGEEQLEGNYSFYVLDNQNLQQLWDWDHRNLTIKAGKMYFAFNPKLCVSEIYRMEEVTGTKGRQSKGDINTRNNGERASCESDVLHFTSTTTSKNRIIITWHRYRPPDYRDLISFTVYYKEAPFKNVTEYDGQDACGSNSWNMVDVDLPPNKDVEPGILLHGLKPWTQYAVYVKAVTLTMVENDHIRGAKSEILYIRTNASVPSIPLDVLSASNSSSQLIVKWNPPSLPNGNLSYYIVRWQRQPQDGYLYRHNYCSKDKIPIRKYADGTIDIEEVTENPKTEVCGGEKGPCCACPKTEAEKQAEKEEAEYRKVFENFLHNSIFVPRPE
Sequence of Insulin-like growth factor 1 receptor (Homo sapiens) (P08069 741-1367 limits assumed): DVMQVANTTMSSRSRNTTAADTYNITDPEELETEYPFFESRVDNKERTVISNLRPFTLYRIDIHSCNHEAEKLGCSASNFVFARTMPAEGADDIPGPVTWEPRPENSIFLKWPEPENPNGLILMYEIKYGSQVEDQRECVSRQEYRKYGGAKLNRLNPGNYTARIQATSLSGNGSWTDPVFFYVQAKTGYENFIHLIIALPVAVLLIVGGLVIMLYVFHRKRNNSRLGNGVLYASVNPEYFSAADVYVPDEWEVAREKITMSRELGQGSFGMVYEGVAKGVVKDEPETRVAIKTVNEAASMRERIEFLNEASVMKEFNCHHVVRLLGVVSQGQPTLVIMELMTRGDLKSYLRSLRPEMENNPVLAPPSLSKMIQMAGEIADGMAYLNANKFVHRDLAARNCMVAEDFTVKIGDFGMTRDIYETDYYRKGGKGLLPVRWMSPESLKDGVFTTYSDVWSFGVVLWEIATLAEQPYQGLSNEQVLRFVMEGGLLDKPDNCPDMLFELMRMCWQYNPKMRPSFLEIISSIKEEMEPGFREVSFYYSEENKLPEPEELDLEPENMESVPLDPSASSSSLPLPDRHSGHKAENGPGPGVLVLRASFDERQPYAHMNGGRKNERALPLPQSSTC

[28] = biological target: Rho-associated protein kinase 2 (Homo sapiens) (UniProt O75116); assay: Inhibition of human ROCK-2 assessed as enzyme activity at 1 uM relative to control; design: scale not given: the % may be the effect or the level left
[29] = biological target: Serine/threonine-protein kinase BRSK1 (Homo sapiens) (UniProt Q8TDC3); assay: Inhibition of human BrSK1 assessed as enzyme activity at 1 uM relative to control; design: scale not given: the % may be the effect or the level left
[30] = biological target: Casein kinase I isoform gamma-1 (Homo sapiens) (UniProt Q9HCP0); assay: Inhibition of human CK1gamma1 assessed as enzyme activity at 1 uM relative to control; design: scale not given: the % may be the effect or the level left
Sequence of Casein kinase I isoform gamma-1 (Homo sapiens) (Q9HCP0 whole entry, looked up, canonical isoform): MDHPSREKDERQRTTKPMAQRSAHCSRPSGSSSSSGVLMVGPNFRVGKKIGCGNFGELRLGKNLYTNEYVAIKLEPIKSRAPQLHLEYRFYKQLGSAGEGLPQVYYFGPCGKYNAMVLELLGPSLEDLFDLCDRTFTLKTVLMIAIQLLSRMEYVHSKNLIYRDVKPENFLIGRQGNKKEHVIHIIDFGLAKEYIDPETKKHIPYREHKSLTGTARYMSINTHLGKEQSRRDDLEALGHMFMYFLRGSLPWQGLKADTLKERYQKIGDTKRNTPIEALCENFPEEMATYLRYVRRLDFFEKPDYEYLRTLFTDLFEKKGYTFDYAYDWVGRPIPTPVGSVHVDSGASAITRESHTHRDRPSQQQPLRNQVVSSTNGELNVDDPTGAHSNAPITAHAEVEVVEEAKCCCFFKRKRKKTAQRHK

[31] = biological target: Serine/threonine-protein kinase B-raf (Homo sapiens) (UniProt P15056); assay: Inhibition of B-Raf (unknown origin) at 1 uM
[32] = biological target: Mitogen-activated protein kinase 10 (Homo sapiens) (UniProt P53779); assay: Inhibition of human JNK3 assessed as enzyme activity at 1 uM relative to control; design: scale not given: the % may be the effect or the level left
[33] = biological target: Serine/threonine-protein kinase Sgk3 (Homo sapiens) (UniProt Q96BR1); assay: Inhibition of human SGK3 assessed as enzyme activity at 1 uM relative to control; design: scale not given: the % may be the effect or the level left
[34] = Clearance in mouse at 2.5 mg/kg, iv; format: ADME, organism-based; design: dose 2.5 mg/kg, route intravenous; conditions: in vivo
[35] = biological target: Mast/stem cell growth factor receptor Kit (Homo sapiens) (UniProt P10721); assay: Inhibition of human KIT assessed as enzyme activity at 1 uM relative to control; design: scale not given: the % may be the effect or the level left
[36] = biological target: Insulin-like growth factor 1 receptor (Homo sapiens) (UniProt P08069); assay: Inhibition of human activated IGF-1R assessed as enzyme activity at 1 uM relative to control; design: scale not given: the % may be the effect or the level left
[37] = biological target: Rhodopsin kinase GRK7 (Homo sapiens) (UniProt Q8WTQ7); assay: Inhibition of human GRK7 assessed as enzyme activity at 1 uM relative to control; design: scale not given: the % may be the effect or the level left
[38] = biological target: Dual specificity mitogen-activated protein kinase kinase 1 (Homo sapiens) (UniProt Q02750); assay: Inhibition of human MEK1 assessed as enzyme activity at 1 uM relative to control; design: scale not given: the % may be the effect or the level left
[39] = biological target: Tyrosine-protein kinase JAK3 (Homo sapiens) (UniProt P52333); assay: Inhibition of human JAK3 assessed as enzyme activity at 1 uM relative to control; design: scale not given: the % may be the effect or the level left
[40] = biological target: Ephrin type-A receptor 1 (Homo sapiens) (UniProt P21709); assay: Inhibition of human EphA1 assessed as enzyme activity at 1 uM relative to control; design: scale not given: the % may be the effect or the level left
Sequence of Ephrin type-A receptor 1 (Homo sapiens) (P21709 whole entry): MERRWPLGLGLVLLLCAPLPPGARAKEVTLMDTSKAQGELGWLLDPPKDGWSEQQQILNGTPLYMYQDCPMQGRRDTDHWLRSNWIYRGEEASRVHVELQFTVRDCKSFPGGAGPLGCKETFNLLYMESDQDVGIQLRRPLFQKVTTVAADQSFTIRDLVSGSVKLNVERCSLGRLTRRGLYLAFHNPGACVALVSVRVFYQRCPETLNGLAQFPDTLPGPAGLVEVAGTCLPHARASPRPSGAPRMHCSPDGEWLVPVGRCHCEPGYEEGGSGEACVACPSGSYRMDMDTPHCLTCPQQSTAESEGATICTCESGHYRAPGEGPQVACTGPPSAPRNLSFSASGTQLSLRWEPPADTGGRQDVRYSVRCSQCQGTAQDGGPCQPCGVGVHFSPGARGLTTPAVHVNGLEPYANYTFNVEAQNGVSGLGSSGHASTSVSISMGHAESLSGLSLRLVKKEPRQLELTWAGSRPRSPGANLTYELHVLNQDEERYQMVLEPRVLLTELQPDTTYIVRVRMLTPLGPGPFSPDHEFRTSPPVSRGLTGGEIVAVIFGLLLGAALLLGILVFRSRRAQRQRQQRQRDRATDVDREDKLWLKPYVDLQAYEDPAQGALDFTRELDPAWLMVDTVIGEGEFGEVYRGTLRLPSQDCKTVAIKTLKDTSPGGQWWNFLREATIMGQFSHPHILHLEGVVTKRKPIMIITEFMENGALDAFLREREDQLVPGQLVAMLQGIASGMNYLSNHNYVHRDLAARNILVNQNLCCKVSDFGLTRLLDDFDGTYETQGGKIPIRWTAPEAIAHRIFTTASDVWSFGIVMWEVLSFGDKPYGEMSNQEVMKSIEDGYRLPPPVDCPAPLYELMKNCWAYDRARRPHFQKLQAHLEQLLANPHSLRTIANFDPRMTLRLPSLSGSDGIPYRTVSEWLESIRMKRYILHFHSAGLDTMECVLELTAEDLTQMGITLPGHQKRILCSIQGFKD

Sequence of Maternal embryonic leucine zipper kinase (Homo sapiens) (Q14680 whole entry, looked up): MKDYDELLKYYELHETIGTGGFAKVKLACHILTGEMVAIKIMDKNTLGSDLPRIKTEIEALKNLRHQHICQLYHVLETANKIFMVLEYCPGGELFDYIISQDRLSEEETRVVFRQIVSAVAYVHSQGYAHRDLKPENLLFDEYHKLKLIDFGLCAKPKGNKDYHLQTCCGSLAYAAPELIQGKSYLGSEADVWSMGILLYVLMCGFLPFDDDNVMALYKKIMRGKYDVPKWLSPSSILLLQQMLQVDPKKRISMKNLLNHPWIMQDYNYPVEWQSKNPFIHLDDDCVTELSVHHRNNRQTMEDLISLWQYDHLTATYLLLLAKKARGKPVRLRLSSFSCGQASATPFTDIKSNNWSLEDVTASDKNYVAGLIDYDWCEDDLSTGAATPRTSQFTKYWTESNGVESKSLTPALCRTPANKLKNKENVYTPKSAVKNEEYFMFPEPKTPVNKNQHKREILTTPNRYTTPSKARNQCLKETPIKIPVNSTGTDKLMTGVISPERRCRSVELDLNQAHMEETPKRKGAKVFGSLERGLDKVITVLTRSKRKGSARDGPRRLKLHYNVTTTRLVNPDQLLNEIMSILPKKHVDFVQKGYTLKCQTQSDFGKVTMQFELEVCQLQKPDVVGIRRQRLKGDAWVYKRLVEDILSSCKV

CCCS(=O)(=O)Nc1cccc(Nc2ccc3ncn(C)c(=O)c3c2)c1C#N
Activity [1]: 109% | Activity [2]: 97.5% | Activity [3]: 106% | Activity [4]: 86% | Activity [5]: 145% | Activity [6]: 87% | Activity [7]: 102% | Activity [8]: 109% | Activity [9]: 154% | Activity [10]: 99.5% | Activity [11]: 92% | Activity [12]: 103% | Activity [13]: 109% | Activity [14]: 110% | Activity [15]: 110% | Activity [16]: 91.5% | Activity [17]: 93% | Activity [18]: 95% | Activity [19]: 90% | Activity [20]: 127% | Activity [21]: 101% | Activity [22]: 108% | Activity [23]: 99% | Activity [24]: 105% | Activity [25]: 108% | Activity [26]: 83.5% | Activity [27]: 108% | Activity [28]: 114% | Activity [29]: 102% | Activity [30]: 104% | inhibition [31]: < 60% | Activity [32]: 104% | Activity [33]: 108% | clearance [34]: 1.6 mL/min/kg | Activity [35]: 94.5% | Activity [36]: 84% | Activity [37]: 103% | Activity [38]: 97% | Activity [39]: 99% | Activity [40]: 101%
